From the NIST ThermoML archive (doi:10.1021/acs.jced.6b00833)
± gives the expanded uncertainty stated by the source.

Settings: 101.33 kPa, Liquid, Vibrating tube method

mass density (298.15 K) | mass density (303.15 K) | mass density (308.15 K) | mass density (313.15 K) | mass density (318.15 K) | mass density (323.15 K) | mass density (328.15 K) | mass density (293.15 K) | mass density (333.15 K) | mass density (338.15 K) | mass density (343.15 K) | mass density (348.15 K) | mass density (353.15 K) | mass density (358.15 K) | mass density (363.15 K) | Structure (SMILES) | mass density (298.48 K)
950.7 ± 5.9 kg/m3 | 947.9 ± 5.9 kg/m3 | 945 ± 5.9 kg/m3 | 942.1 ± 5.9 kg/m3 | 939.2 ± 5.8 kg/m3 | 936.3 ± 5.8 kg/m3 | 933.5 ± 5.8 kg/m3 |  |  |  |  |  |  |  |  | CCCC[P+](C)(CCCC)CCCC.O=C[O-] [tributylmethylphosphonium formate] | 
1095.41 ± 6.6 kg/m3 | 1090.38 ± 6.5 kg/m3 | 1085.36 ± 6.5 kg/m3 | 1080.34 ± 6.5 kg/m3 | 1075.32 ± 6.5 kg/m3 | 1070.31 ± 6.4 kg/m3 | 1065.29 ± 6.4 kg/m3 | 1100.42 ± 6.6 kg/m3 | 1060.28 ± 6.4 kg/m3 | 1055.26 ± 6.3 kg/m3 | 1050.23 ± 6.3 kg/m3 | 1045.21 ± 6.3 kg/m3 | 1040.19 ± 6.2 kg/m3 | 1035.15 ± 6.2 kg/m3 | 1030.12 ± 6.2 kg/m3 | C[S+](C)[O-] [dimethyl sulfoxide] | 
 |  |  |  |  |  |  |  |  |  |  |  |  |  |  | CCCC[N+](C)(C)C.O=S(=O)([N-]S(=O)(=O)C(F)(F)F)C(F)(F)F [butyltrimethylammonium bis(trifluoromethylsulfonyl)imide] | 1392.89 ± 8.4 kg/m3
1026.76 ± 6.2 kg/m3 | 1023.9 ± 6.2 kg/m3 | 1021.05 ± 6.2 kg/m3 | 1018.22 ± 6.2 kg/m3 | 1015.41 ± 6.1 kg/m3 | 1012.62 ± 6.1 kg/m3 | 1009.85 ± 6.1 kg/m3 |  | 1007.08 ± 6.1 kg/m3 | 1004.33 ± 6.1 kg/m3 | 1001.6 ± 6.1 kg/m3 | 998.88 ± 6 kg/m3 | 996.18 ± 6 kg/m3 | 993.49 ± 6 kg/m3 | 990.81 ± 6 kg/m3 | CCC[N+]1(C)CCCC1.N#CN=C=[N-] [1-methyl-1-propylpyrrolidinium dicyanamide] | 
1097.83 ± 6.9 kg/m3 | 1094.72 ± 6.9 kg/m3 | 1091.64 ± 6.9 kg/m3 | 1088.57 ± 6.8 kg/m3 | 1085.52 ± 6.8 kg/m3 | 1082.49 ± 6.8 kg/m3 | 1079.48 ± 6.8 kg/m3 |  | 1076.48 ± 6.8 kg/m3 | 1073.49 ± 6.7 kg/m3 | 1070.51 ± 6.7 kg/m3 | 1067.55 ± 6.7 kg/m3 | 1064.6 ± 6.7 kg/m3 | 1061.66 ± 6.7 kg/m3 | 1058.74 ± 6.6 kg/m3 | CC(=O)[O-].CCn1cc[n+](C)c1 [1-ethyl-3-methylimidazolium acetate] | 
